Measurements reported in patent publication US20120029075A1, “COMPOSITIONS CONTAINING C1 TO C7 ORGANIC ACID MONOGLYCERIDES AND GLYCEROL, THEIR PREPARATION AND USE AS ANTIBACTERIALS AND ANTI-MOULD AGENTS” (priority 2009, published 2012).
Like-named read-outs stand apart in the source and are kept apart here.

What was measured:
[1] = test system: Porcine Salmonella typhimurium; experiment: In vitro antibacterial action, appearance of growth in Brain Heart Infusion, pH 6 (Tables 3 and 4); type: cell-based; conditions: for Incubation time and appearance of growth: pH 6, inoculation 10^5, Brain Heart Infusion, 3 replications; for Concentration exhibiting inhibitory potency (no growth) in all three replicates: porcine Salmonella typhimurium, tested 5000-40000 ppm
Aspergillus spp = experiment: In vitro sensitivity test towards filamentous fungi (Example 5), Aspergillus; type: cell-based; conditions: 5 ml fungal suspension + 5 ml product, 24 hours at 20±4° C.; read after 5 days; control 450000
Experimental: (§1) In Vitro Sensitivity Tests towards Filamentous Fungi (Moulds)
(§2) Strains of Aspergillus spp, Penicillium spp and Fusarium spp were utilized for the test, having been isolated and identified during diagnostic activity at the IZSLER section of Forli from complete feeds used in the chicken industry. To prepare the inoculum, mycelium of pure cultures of the tested strains was collected using a swab. The material thus collected was dissolved in a culture broth (BHI—Brain Heart Infusion). 5 ml of the fungal suspension and an equal amount of the product to be tested were placed in contact in a test tube. The test tube was incubated at 20±4° C. for 24 hours.
(§3) After this time period, the fungal suspension was then seeded and enumerated.
(§4) The control suspension was obtained by placing 5 ml of fungal suspension+5 ml of diluent (Ringer's lactate) into a test tube. Reading of the tests was carried out after a 5 day incubation period at 20±4° C.

Fusarium spp = experiment: In vitro sensitivity test towards filamentous fungi (Example 5), Fusarium; type: cell-based; conditions: 5 ml fungal suspension + 5 ml product, 24 hours at 20±4° C.; read after 5 days; control 310000
Experimental: as §1, §2, §3, §4

Penicillium spp = experiment: In vitro sensitivity test towards filamentous fungi (Example 5), Penicillium; type: cell-based; conditions: 5 ml fungal suspension + 5 ml product, 24 hours at 20±4° C.; read after 5 days; control 97000
Experimental: as §1, §2, §3, §4

[2] = test system: Clostridium perfringens CP27; type: cell-based; conditions: for Incubation time and appearance of growth: inoculation 10^5, Brain Heart Infusion, 3 replications; for Concentration exhibiting inhibitory potency (no growth) in all three replicates: Clostridium perfringens, tested 500-4000 ppm
Campylobacter jejuni = experiment: Antibacterial potency (Table 1), Campylobacter jejuni count
Salmonella typhimurium = experiment: Antibacterial potency (Table 1), Salmonella typhimurium count
E. coli [3] = experiment: Antibacterial potency (Table 1), E. coli count; type: cell-based
E. coli [4] = experiment: In vitro antibacterial action, appearance of growth in Brain Heart Infusion, pH 5 (Table 5); conditions: for Incubation time and appearance of growth: pH 5, inoculation 10^5, Brain Heart Infusion, 3 replications
[5] = pH 4.5, conc. used: Propionic acid 1:909, Butyric Acid 1:1000, Monobutyrin 43 1:100
[6] = pH 7, conc. used: Propionic acid 1:909, Butyric Acid 1:1000, Monopropionin 43 1:109, Monobutyrin 43 1:100

Compound: CC(=O)O [Acetic acid]
- Incubation time and appearance of growth ([1]; 5000 ppm, Table 3): + (+ for 24 hr)
- Incubation time and appearance of growth ([1]; 10000 ppm, Table 3): + (+ for 24 hr)
- Incubation time and appearance of growth ([1]; 15000 ppm, Table 3): + (+ for 24 hr)
- Incubation time and appearance of growth ([1]; 20000 ppm, Table 3): no growth
- Incubation time and appearance of growth ([1]; 25000 ppm, Table 3): no growth
- Incubation time and appearance of growth ([1]; 30000 ppm, Table 3): no growth
- Incubation time and appearance of growth ([1]; 40000 ppm, Table 3): no growth
- Concentration exhibiting inhibitory potency (no growth) in all three replicates ([1]; acetic acid series): ≥ 20,000 ppm

Compound: CCC(=O)O.N [Ammonium propionate]
- ASPERGILLUS spp. count (Aspergillus spp): 1000 cfu/ml
- FUSARIUM spp. count (Fusarium spp): 500 cfu/ml
- PENICILLIUM spp. count (Penicillium spp): 100 cfu/ml

Compound: CCCC(=O)O [Butyric Acid]
- Incubation time and appearance of growth ([2]; 500 ppm): + (+ for 24 hr)
- Incubation time and appearance of growth ([2]; 1000 ppm): + (+ for 24 hr)
- Incubation time and appearance of growth ([2]; 1500 ppm): + (+ for 24 hr)
- Incubation time and appearance of growth ([2]; 2000 ppm): ++ (++ for 37 hr)
- Incubation time and appearance of growth ([2]; 2500 ppm): ++ (++ for 37 hr)
- Incubation time and appearance of growth ([2]; 3000 ppm): no growth
- Incubation time and appearance of growth ([2]; 4000 ppm): no growth
- Concentration exhibiting inhibitory potency (no growth) in all three replicates [2]: ≥ 3000 ppm
- Campylobacter jejuni (cfu/ml) (Campylobacter jejuni; [5]): 2 × 10^1 cfu/ml
- Campylobacter jejuni (cfu/ml) (Campylobacter jejuni; [6]): 18 × 10^3 cfu/ml
- Salmonella typhimurium (cfu/ml) (Salmonella typhimurium; [5]): 25 × 10^3 cfu/ml
- Salmonella typhimurium (cfu/ml) (Salmonella typhimurium; [6]): 65 × 10^4 cfu/ml
- E. coli (cfu/ml) (E. coli [3]; [5]): 78 × 10^4 cfu/ml
- E. coli (cfu/ml) (E. coli [3]; [6]): 106 × 10^4 cfu/ml

Compound: O=C(O)/C=C/C(=O)O [Fumaric acid]
- Incubation time and appearance of growth (E. coli [4]; 10000 ppm): + (+ for 24 hr)
- Incubation time and appearance of growth (E. coli [4]; 20000 ppm): + (+ for 24 hr)
- Incubation time and appearance of growth (E. coli [4]; 40000 ppm): + (+ for 24 hr)
- Incubation time and appearance of growth (E. coli [4]; 60000 ppm): ++ (++ for 37 hr)
- Incubation time and appearance of growth (E. coli [4]; 80000 ppm): ++ (++ for 37 hr)
- Incubation time and appearance of growth (E. coli [4]; 90000 ppm): no growth
- Incubation time and appearance of growth (E. coli [4]; 100000 ppm): no growth
- Concentration exhibiting inhibitory potency (no growth) in all three replicates (E. coli [4]; E. coli, tested 10000-100000 ppm): ≥ 90,000 ppm

Compound: CCC(=O)O [Propionic acid]
- ASPERGILLUS spp. count (Aspergillus spp): 300 cfu/ml
- Campylobacter jejuni (cfu/ml) (Campylobacter jejuni; [5]): 14 × 10^1 cfu/ml
- Campylobacter jejuni (cfu/ml) (Campylobacter jejuni; [6]): 33 × 10^3 cfu/ml
- Salmonella typhimurium (cfu/ml) (Salmonella typhimurium; [5]): 42 × 10^3 cfu/ml
- Salmonella typhimurium (cfu/ml) (Salmonella typhimurium; [6]): 11 × 10^4 cfu/ml
- E. coli (cfu/ml) (E. coli [3]; [5]): 13 × 10^4 cfu/ml
- E. coli (cfu/ml) (E. coli [3]; [6]): 54 × 10^4 cfu/ml
- FUSARIUM spp. count (Fusarium spp): 300 cfu/ml
- PENICILLIUM spp. count (Penicillium spp): <100 cfu/ml

Compound: Butyric acid monoglycerides
- Incubation time and appearance of growth ([2]; 500 ppm): + (+ for 24 hr)
- Incubation time and appearance of growth ([2]; 1000 ppm): + (+ for 24 hr)
- Incubation time and appearance of growth ([2]; 1500 ppm): + (+ for 24 hr)
- Incubation time and appearance of growth ([2]; 2000 ppm): + (+ for 24 hr)
- Incubation time and appearance of growth ([2]; 2500 ppm): + (+ for 24 hr)
- Incubation time and appearance of growth ([2]; 3000 ppm): + (+ for 24 hr)
- Incubation time and appearance of growth ([2]; 4000 ppm): + (+ for 24 hr)
- Concentration exhibiting inhibitory potency (no growth) in all three replicates [2]: do not exhibit any inhibitory potency

Compound: Formic acid monoglycerides
- Incubation time and appearance of growth ([1]; 5000 ppm, Table 4): + (+ for 24 hr)
- Incubation time and appearance of growth ([1]; 10000 ppm, Table 4): + (+ for 24 hr)
- Incubation time and appearance of growth ([1]; 15000 ppm, Table 4): + (+ for 24 hr)
- Incubation time and appearance of growth ([1]; 20000 ppm, Table 4): + (+ for 24 hr)
- Incubation time and appearance of growth ([1]; 25000 ppm, Table 4): no growth
- Incubation time and appearance of growth ([1]; 30000 ppm, Table 4): no growth
- Incubation time and appearance of growth ([1]; 40000 ppm, Table 4): no growth
- Concentration exhibiting inhibitory potency (no growth) in all three replicates ([1]; formic acid series): ≥ 25,000 ppm
